Among the data in patent US10011572B2, “Monocyclic isoxazolines as inhibitors of cholesterol ester transfer protein” (Merck Sharp & Dohme Corp., priority 2014, dated 2018) are IC50 values, retold here.

Molecules are shown by their SMILES. pIC50: −log10 of the molar value.

One test has as its target T1, endogenous CETP from serum (Homo sapiens, UniProt P11597).
T1 construct: yielding a concentration of approximately 15 nM endogenous CETP in the assay; from tissue; host or cells: human serum
T1 sequence (P11597 18-493): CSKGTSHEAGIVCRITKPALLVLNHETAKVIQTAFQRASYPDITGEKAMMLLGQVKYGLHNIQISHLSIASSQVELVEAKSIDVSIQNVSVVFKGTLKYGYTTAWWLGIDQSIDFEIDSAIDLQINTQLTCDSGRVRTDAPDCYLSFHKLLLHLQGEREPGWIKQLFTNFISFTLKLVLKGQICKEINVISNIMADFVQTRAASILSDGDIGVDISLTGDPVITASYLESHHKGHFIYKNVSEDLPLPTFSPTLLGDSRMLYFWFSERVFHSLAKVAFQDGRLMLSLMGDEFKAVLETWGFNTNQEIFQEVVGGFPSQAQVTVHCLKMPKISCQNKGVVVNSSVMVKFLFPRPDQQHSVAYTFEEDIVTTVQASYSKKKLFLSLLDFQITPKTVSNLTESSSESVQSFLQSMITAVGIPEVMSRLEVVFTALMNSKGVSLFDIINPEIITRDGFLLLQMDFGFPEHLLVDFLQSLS
In words: RTA assay in 95% human serum (in vitro radioactive assay of CETP-catalyzed CE and TG transfer, endogenous CETP). The format is biochemical. The note with it: read-out: IC50 (nM) RTA with 95% HS. As to the method: In Vitro Radioactive Assays of CETP-Catalyzed CE and TG Transfer (RTA Assay)
Reagents and sources are: [3H] cholesteryl oleate (GE #TRK.886), [3H] Triolein (Perkin-Elmer NET-431), Butylated hydroxyl toluene (Aldrich, #D4740-4), DOPC (Sigma, # P6354), Sodium Bromide (Fisher scientific #S255-500), PEG 8000 (Fisher, #BP233-1), and human HDL (Intracel Corp #RP-036).
An in vitro assay for determining IC50's to identify compounds that inhibit CETP transfer activity is performed based on a modification of a published method (Morton and Zilversmit, (1981) A plasma inhibitor of triglyceride and cholesteryl ester transfer activities, J. Biol. Chem. 256(23), 11992-11995). The ability of inhibitors to alter CETP activity is performed using two different assays: one using recombinant CETP and one using an endogenous plasma source of CETP. Both assays measure the transfer of [3H] cholesteryl oleate or [3H] triolein from exogenous LDL to HDL.
Radiolabeled donor particles are generated by first combining 100 μl of 200 μM butylated hydroxyl toluene in CHCl3, 216 μL of 21.57 mM DOPC in EtOH, and either 500 μCi [3H]-triolein (Perkin Elmer #NET-431) or 500 μCi [3H]-cholesteryl oleate (GE #TRK886) in a glass tube. Reagents are mixed, dried under nitrogen, and then resuspended in 2 mL of 50 mM Tris, 27 μM EDTA at pH 7.4. After a brief vortex, the solution is sonicated until clear and mixed with 20 mL of fresh human serum. The mixture is incubated overnight at 37° C. The [3H] labeled LDL substrate is separated at 1.063 g/ml density by sequential ultracentrifugal flotation in NaBr according to the method of Havel, Eder, et al., 1955, and Chapman, Goldstein, et al., 1981. Once isolated the particles are dialyzed 3× in CETP buffer (50 mM Tris, pH 7.4, 100 mM NaCl, 1 mM EDTA). Human HDL is purchased from Intracel and used as the acceptor particles.
Transfer assays are performed in a 96-well v-bottom polypropylene plate. For the RTA using recombinant CETP (2% RTA), an assay cocktail is prepared with the final concentrations 128 μg/mL HDL, 20 nM rCETP, 2% human serum, and 1×CETP buffer. 1 μL of each test compound diluted in DMSO is added to 47 μL of assay cocktail per well and incubated at 37° C. for 1 hour. To initiate the transfer reaction, 2 μL radiolabeled LDL is added. After an additional 60 min of incubation at 37° C., the transfer action is terminated by precipitation of LDL with an equal volume of 20% WN PEG 8000. The plates are centrifuged at 2000 rpm for 30 minutes at 4° C. A 40 μL aliquot of the HDL-containing supernatant is transferred to a Packard Optiplate™ with 200 μL of MicroScint™ 20. After mixing, plates are counted by liquid scintillation. Counts present in the supernatant for blanks (wells containing only HDL acceptor, CETP buffer and DMSO) are subtracted from those containing test compounds and used to correct for non-specific transfer.
For the transfer assay using endogenous CETP from serum (95% RTA), the same procedure is used except that human serum is added such that a final concentration of serum of 95% of the total assay volume is achieved, yielding a concentration of approximately 15 nM endogenous CETP in the assay. This is then combined with HDL and CETP buffer and the reaction proceeds as above and is terminated as described.
Comparison of the counts of samples with inhibitors to an uninhibited (DMSO only) positive control yield a percent inhibition. A plot of percent inhibition vs. log of inhibitor concentration, fit to a Sigmoidal 4 parameter equation is used to calculate IC50.
Starting materials are commercially available or are made using known procedures or as shown below. The examples may be synthesized according to the general schemes provided below and by using the synthetic intermediates that are described. The data reported for the examples below were obtained using the RTA assay in 95% human serum.
In the case of `COc1ncc(-c2ccc(C(=O)O)cc2C)cc1-c1ccc(C(F)(F)F)nc1CC1=NO[C@H](c2cc(C(F)(F)F)cc(C(F)(F)F)c2)C1` [Example 10, (S)-4-[2′-({5-[3,5-bis(trifluoromethyl)phenyl]-4,5-dihydroisoxazol-3-yl}methyl)-2-methoxy-6′-(trifluoromethyl)-3,3′-bipyridin-5-yl]-3-methylbenzoic acid], the IC50 (commonly the concentration at which inhibition is half-maximal) came out at 400 nM.

For the compound `COc1ncc(-c2ccc(C(=O)O)cc2C)cc1-c1ccc(C(F)(F)F)cc1CC1=NO[C@H](c2cc(C(F)(F)F)cc(C(F)(F)F)c2)C1` [Example 6, 4-{5-[2-({(5S)-5-[3,5-bis(trifluoromethyl)phenyl]-4,5-dihydroisoxazol-3-yl}methyl)-4-(trifluoromethyl)phenyl]-6-methoxypyridin-3-yl}-3-methylbenzoic acid], the IC50 is 537 nM.

In the case of `COc1ccc(-c2cc(-c3ccc(C(=O)O)cc3C)ccc2OC)c(CC2=NO[C@H](c3cc(C(F)(F)F)cc(C(F)(F)F)c3)C2)n1` [Example 11, (S)-3′-[2-({5-[3,5-bis(trifluoromethyl)phenyl]-4,5-dihydroisoxazol-3-yl}methyl)-6-methoxypyridin-3-yl]-4′-methoxy-2-methylbiphenyl-4-carboxylic acid], the IC50 worked out at 176 nM.

In the case of `COc1ccc(-c2ccc(C(=O)O)cc2C)cc1-c1cnc(C(F)(F)F)cc1CC1=NO[C@H](c2cc(C(F)(F)F)cc(C(F)(F)F)c2)C1` [Example 8, (S)-3′-[4-({5-[3,5-bis(trifluoromethyl)phenyl]-4,5-dihydroisoxazol-3-yl}methyl)-6-(trifluoromethyl)pyridin-3-yl]-4′-methoxy-2-methylbiphenyl-4-carboxylic acid], the IC50 was determined as 1070 nM.

Regarding `COc1ncc(-c2c(C)cc(C(=O)O)cc2C)cc1-c1ccc(C(F)(F)F)cc1CC1=NO[C@H](c2cc(C(F)(F)F)cc(C(F)(F)F)c2)[C@@H]1C` [Example 13, 4-(5-(2-(((4R,5S)-5-(3,5-bis(trifluoromethyl)phenyl)-4-methyl-4,5-dihydroisoxazol-3-yl)methyl)-4-(trifluoromethyl)phenyl)-6-methoxypyridin-3-yl)-3,5-dimethylbenzoic acid], the IC50 turned out to be 343 nM.

For `COc1ncc(-c2ccc(C(=O)O)cc2C)cc1-c1cnc(C(F)(F)F)cc1CC1=NO[C@H](c2cc(C(F)(F)F)cc(C(F)(F)F)c2)C1` [Example 7, (S)-4-[4′-({5-[3,5-bis(trifluoromethyl)phenyl]-4,5-dihydroisoxazol-3-yl}methyl)-2-methoxy-6′-(trifluoromethyl)-3,3′-bipyridin-5-yl]-3-methylbenzoic acid], the IC50 was 4970 nM.

Take `COc1ncc(-c2ccc(C(=O)O)cc2C)cc1-c1ccc(C(F)(F)F)cc1CC1=NO[C@H](c2cc(C(F)(F)F)cc(C(F)(F)F)c2)[C@@H]1C` [Example 14, 4-(5-(2-(((4R,5S)-5-(3,5-bis(trifluoromethyl)phenyl)-4-methyl-4,5-dihydroisoxazol-3-yl)methyl)-4-(trifluoromethyl)phenyl)-6-methoxypyridin-3-yl)-3-methylbenzoic acid]: the IC50 is 169 nM.

As to `COc1ccc(CCC(=O)O)cc1-c1ccc(C(F)(F)F)cc1CC1=NO[C@H](c2cc(C(F)(F)F)cc(C(F)(F)F)c2)C1` [Example 5, 3-[2′-({(5S)-5-[3,5-bis(trifluoromethyl)phenyl]-4,5-dihydroisoxazol-3-yl}methyl)-6-methoxy-4′-(trifluoromethyl)biphenyl-3-yl]propanoic acid], the IC50 turned out to be 1500 nM.

Take `COc1cc(F)c(C(C)C)cc1-c1ccc(C(F)(F)F)cc1CC1=NO[C@H](c2cc(C(F)(F)F)cc(C(F)(F)F)c2)C1` [Example 4, (5S)-5-[3,5-bis(trifluoromethyl)phenyl]-3-{[4′-fluoro-2′-methoxy-5′-(1-methylethyl)-4-(trifluoromethyl)biphenyl-2-yl]methyl}-4,5-dihydroisoxazole]: the IC50 is 1290 nM.

For the compound `COc1ncc(-c2ccc(C(=O)O)cc2C)cc1-c1ccc(C(F)(F)F)cc1CC1=NO[C@H](c2ccnc(C(F)(F)F)c2)C1` [Example 9, (S)-4-{6-methoxy-5-[4-(trifluoromethyl)-2-({5-[2-(trifluoromethyl)pyridin-4-yl]-4,5-dihydroisoxazol-3-yl}methyl)phenyl]pyridin-3-yl}-3-methylbenzoic acid], the IC50 worked out at 6500 nM.

Regarding `COc1ccc(-c2cc(-c3ccc(C(=O)O)cc3C)cnc2OC)c(CC2=NO[C@H](c3cc(C(F)(F)F)cc(C(F)(F)F)c3)C2)n1` [Example 12, (S)-4-[2′-({5-[3,5-bis(trifluoromethyl)phenyl]-4,5-dihydroisoxazol-3-yl}methyl)-2,6′-dimethoxy-3,3′-bipyridin-5-yl]-3-methylbenzoic acid], the IC50 amounted to 880 nM.

The same test, now with this note: read-out: IC50 RTA (95% HS).
As for `COc1ccc(-c2ccc(C(=O)O)cc2C)cc1-c1ccc(C(F)(F)F)cc1CC1=NO[C@@H](c2cc(C(F)(F)F)cc(C(F)(F)F)c2)[C@H]1C` [Example 3A, 2″-(((4S,5R)-5-(3,5-bis(trifluoromethyl)phenyl)-4-methyl-4,5-dihydroisoxazol-3-yl)methyl)-4′-methoxy-2-methyl-4″-(trifluoromethyl)-[1,1′:3′,1″-terphenyl]-4-carboxylic acid], the pIC50 (as a rule, the IC50 on a negative log10 scale, so that one unit is a factor of ten) is under 5.00.

Take `COc1ccc(-c2ccc(C(=O)O)cc2C)cc1-c1ccc(C(F)(F)F)cc1CC1=NO[C@H](c2cc(C(F)(F)F)cc(C(F)(F)F)c2)[C@@H]1C` [Example 3B, 2″-(((4R,5S)-5-(3,5-bis(trifluoromethyl)phenyl)-4-methyl-4,5-dihydroisoxazol-3-yl)methyl)-4′-methoxy-2-methyl-4″-(trifluoromethyl)-[1,1′:3′,1″-terphenyl]-4-carboxylic acid]: the pIC50 was 6.53.

In the case of `COc1cc(F)c(-c2ccc(C(=O)O)cc2C)cc1-c1ccc(C(F)(F)F)cc1CC1=NO[C@H](c2cc(C(F)(F)F)cc(C(F)(F)F)c2)C1` [Example 1A, (S)-2″-((5-(3,5-bis(trifluoromethyl)phenyl)-4,5-dihydroisoxazol-3-yl)methyl)-6′-fluoro-4′-methoxy-2-methyl-4″-(trifluoromethyl)-[1,1′:3′,1″-terphenyl]-4-carboxylic acid], the pIC50 was 7.43.

In the case of `COc1cc(F)c(-c2ccc(C(=O)O)cc2C)cc1-c1ccc(C(F)(F)F)cc1CC1=NO[C@@H](c2cc(C(F)(F)F)cc(C(F)(F)F)c2)C1` [Example 1B, (R)-2″-((5-(3,5-bis(trifluoromethyl)phenyl)-4,5-dihydroisoxazol-3-yl)methyl)-6′-fluoro-4′-methoxy-2-methyl-4″-(trifluoromethyl)-[1,1′:3′,1″-terphenyl]-4-carboxylic acid], the pIC50 is 5.80.
